Results taken from patent US20070248694A1, “Anti-inflammatory properties of a standardized extract from Euphorbia hirta (PM-251) activity and for treating conditions of inflammation” (PhytoMyco Research Corporation, priority 2006, published 2007).

How the values were obtained:
Assay type in all cases: in vivo, Wister strain - Albino rats
[1] = test system: Carrageenin induced rat paw edema; assay: Carrageenin induced rat paw edema; conditions: 100 mg/kbw oral single dose
Protocol: Dose Levels • Control: One ml of 1% gum acacia • Standard: 100 mg/kbw (kilogram body weight) in acute models and sub-acute models. • T1:100 mg/kbw and T2:200 mg/kbw in Carrageenin and Turpentine models and T1: […] All drugs (dose) were given only once a day. 2. Method of performance study • Main assays: The test article, the standard and control were administered: a. Carrageenin induced rat paw edema: The respective drug was administered in single dose through mouth 1 hour before the administration of phlogistic agent. The method used comprises of the study of the acute inflammatory reaction induced by injecting the phlogistic agent carrageenin into the subplantar surface of the right hindpaw of the rat. […] Lesser the mean paw volume more was the anti-inflammatory potential and vice versa. • b. Turpentine induced arthritis: The respective drug was administered in single dose through mouth 1 hour before the administration of phlogistic agent. This is one of the commonly employed models to induce arthritis in the rat; 0.01 ml turpentine was injected to the right knee joint. The maximum diameter of the right knee joint was measured at ‘0’ hour and at the end of ‘4’ hours after the injection with the help of screw gauge and the difference between ‘0’ hour and ‘4’ hour reading gave the actual arthritis. […]

[2] = test system: Formalin induced peritonitis; assay: Formalin induced experimental peritonitis; conditions: 100 mg/kbw oral single dose
Protocol: (§1) Dose Levels • Control: One ml of 1% gum acacia • Standard: 100 mg/kbw (kilogram body weight) in acute models and sub-acute models. • T1:100 mg/kbw and T2:200 mg/kbw in Carrageenin and Turpentine models and T1: 200 mg/kbw and T2:400 mg/kbw in Cotton pellet granuloma and Formalin induced arthritis model. […] All drugs (dose) were given only once a day. 2. Method of performance study • Main assays: The test article, the standard and control were administered: a. Carrageenin induced rat paw edema: The respective drug was administered in single dose through mouth 1 hour before the administration of phlogistic agent. The method used comprises of the study of the acute inflammatory reaction induced by injecting the phlogistic agent carrageenin into the subplantar surface of the right hindpaw of the rat. […] Lesser the mean paw volume more was the anti-inflammatory potential and vice versa. • b. Turpentine induced arthritis: The respective drug was administered in single dose through mouth 1 hour before the administration of phlogistic agent. […] The maximum diameter of the right knee joint was measured at ‘0’ hour and at the end of ‘4’ hours after the injection with the help of screw gauge and the difference between ‘0’ hour and ‘4’ hour reading gave the actual arthritis. […]

[3] = test system: Cotton pellet induced granuloma; assay: Cotton wool pellet induced granuloma; conditions: 100 mg/kbw oral once daily
Protocol: as §1

[4] = test system: Turpentine induced arthritis; assay: Turpentine induced arthritis; conditions: 100 mg/kbw oral single dose
Protocol: Dose Levels • Control: One ml of 1% gum acacia • Standard: 100 mg/kbw (kilogram body weight) in acute models and sub-acute models. • T1:100 mg/kbw and T2:200 mg/kbw in Carrageenin and Turpentine models and T1: […] All drugs (dose) were given only once a day. 2. Method of performance study • Main assays: The test article, the standard and control were administered: a. Carrageenin induced rat paw edema: The respective drug was administered in single dose through mouth 1 hour before the administration of phlogistic agent. The method used comprises of the study of the acute inflammatory reaction induced by injecting the phlogistic agent carrageenin into the subplantar surface of the right hindpaw of the rat. […] Lesser the mean paw volume more was the anti-inflammatory potential and vice versa. • b. Turpentine induced arthritis: The respective drug was administered in single dose through mouth 1 hour before the administration of phlogistic agent. This is one of the commonly employed models to induce arthritis in the rat; 0.01 ml turpentine was injected to the right knee joint. The maximum diameter of the right knee joint was measured at ‘0’ hour and at the end of ‘4’ hours after the injection with the help of screw gauge and the difference between ‘0’ hour and ‘4’ hour reading gave the actual arthritis. Lesser the mean diameter right knee joint more the anti-inflammatory potential and vice versa. • c. Formalin induced experimental peritonitis: The respective drug was administered in single dose through mouth 1 hour before the administration of phlogistic agent by injecting 1 ml of 1% formalin in to the peritoneal cavity. […] Lesser the mean exudates more is the anti-inflammatory potential and vice versa. • d. Cotton wool pellet induced granuloma: The respective drug was administered by mouth in single dose one hour prior to the cotton pellet implantation on the first day and subsequently every day for next five days. The extent of formation of foreign body granuloma (granulation tissue) is the main criterion for evaluating anti-inflammatory activity. […]

## COc1ccc2c(c1)c(CC(=O)O)c(C)n2C(=O)c1ccc(Cl)cc1 [Indomethacin]
[1]
  Inhibitory Potency Values: 3.98
[1]; paw edema volume, difference 0 h to 4 h
  Mean volume (in ml.) (±) SEM: 0.88 ± 0.52 mL
[2]
  Inhibitory Potency Values: 1.38
[2]; peritoneal exudate volume after 4 hours
  Mean volume (in ml.) (±) SEM: 0.57 ± 0.14 mL
[3]
  Inhibitory Potency Values: 2.38
[3]; granulation tissue weight on dried cotton pellet, sixth day
  Mean volume (in mg.) (±): 6.54 ± 0.36 mg
[4]
  % inhibition with respect to control: 84.95%
  Inhibitory Potency Values: 0.85
[4]; right knee joint diameter, difference 0 h to 4 h
  Mean volume (in mm.) (±) SEM: 1.55 ± 0.19 mm
